These results are taken from patent US9951025B2, “Halogenopyrazoles as inhibitors of thrombin” (VERSEON CORPORATION, priority 2013, dated 2018).

The target in the test is T1, Human thrombin (Homo sapiens, UniProt P00734).
T1 construct: purchased Haematologic Technologies Inc
The test can be described thus: thrombin protease inhibition assay, chromogenic substrate S-2238. In kind it is biochemical. The note with it: 3 nM human thrombin, 125 μM S-2238, 10 min pre-incubation, RT. The method, then:
Compounds described herein can be assayed, by a variety of methods known in the art and described herein, for inhibition of biological activity, e.g., protease activity, of a variety of proteins, e.g., thrombin.
The thrombin activity reported herein (e.g., Table A) was obtained as follows. […] Thrombin was assayed in buffer containing 0.05 M Tris (pH 7.4), 0.015 M NaCl and 0.01% PEG-8000. The final concentration of enzyme used was 3 nM thrombin. […] All assays were performed in 96-well microtiter plates at room temperature (RT). […] Inhibitor IC50 values were determined by adding test compound as ten point, three-fold serial dilutions in buffer solution, as known in the art. The plate was read at 10 minutes after substrate addition. The IC50 was calculated by plotting the percent (%) inhibition against compound concentration and fitting the data to a constrained four parameter sigmoidal curve, as known in the art.

The molecule `COC(C)(C)C(=O)n1nc(-c2ccccc2)c(F)c1NCc1ccc(Cl)s1` [Compound 12, 1-(5-[(5-chlorothiophen-2-yl)methyl]amino-4-fluoro-3-phenyl-1H-pyrazol-1-yl)-2-methoxy-2-methylpropan-1-one] displayed an IC50 of less than 100 nM.
Then `COc1ccccc1C(=O)n1nc(NCc2ccc(Cl)s2)c(F)c1C1CCOCC1` [Compound 45, N-[(5-chlorothiophen-2-yl)methyl]-4-fluoro-1-(2-methoxybenzoyl)-5-(oxan-4-yl)-1H-pyrazol-3-amine], with more than 1000 nM.
For the molecule `CC(C)(C)C(=O)n1nc(-c2ccc3c(c2)CCCC3O)c(F)c1NCc1ccc(Cl)s1` (stereo not drawn) [Compound 2, 1-(5-[(5-chlorothiophen-2-yl)methyl]amino-4-fluoro-3-(5-hydroxy-5,6,7,8-tetrahydronaphthalen-2-yl)-1H-pyrazol-1-yl)-2,2-dimethylpropan-1-one], the IC50 is more than 1000 nM.
Molecule `COc1ccc(C(=O)n2nc(NCc3ccc(Cl)s3)c(F)c2C2CCOCC2)c(OC)c1` [Compound 39, N-[(5-chlorothiophen-2-yl)methyl]-1-(2,4-dimethoxybenzoyl)-4-fluoro-5-(oxan-4-yl)-1H-pyrazol-3-amine] returned an IC50 of more than 1000 nM.
Then `O=C(c1ccccc1)n1nc(NCc2ccc(Cl)s2)c(F)c1C1CCOCC1` [Compound 25, 1-benzoyl-N-[(5-chlorothiophen-2-yl)methyl]-4-fluoro-5-(oxan-4-yl)-1H-pyrazol-3-amine], with more than 1000 nM; and `COCC(C)(C)C(=O)n1nc(C2CCOCC2)c(F)c1NCc1ccc(Cl)s1` [Compound 5, 1-(5-[(5-chlorothiophen-2-yl)methyl]amino-4-fluoro-3-(oxan-4-yl)-1H-pyrazol-1-yl)-3-methoxy-2,2-dimethylpropan-1-one], with less than 100 nM.
Next, `COc1ccc(C(=O)n2nc(C3CCNCC3)c(F)c2NCc2ccc(Cl)s2)c(OC)c1` [Compound 37, N-[(5-chlorothiophen-2-yl)methyl]-1-(2,4-dimethoxybenzoyl)-4-fluoro-3-(piperidin-4-yl)-1H-pyrazol-5-amine]: less than 100 nM.
Then `O=C(c1ccoc1)n1nc(C2CCNCC2)c(F)c1NCc1ccc(Cl)s1` [Compound 50, N-[(5-chlorothiophen-2-yl)methyl]-4-fluoro-1-(furan-3-carbonyl)-3-(piperidin-4-yl)-1H-pyrazol-5-amine], with less than 100 nM; and `O=C(c1cccc2c1OCCO2)n1nc(-c2ccccc2)c(F)c1NCc1ccc(Cl)s1` [Compound 34, N-[(5-chlorothiophen-2-yl)methyl]-1-(2,3-dihydro-1,4-benzodioxine-5-carbonyl)-4-fluoro-3-phenyl-1H-pyrazol-5-amine], with less than 100 nM; and `O=C(c1ccoc1)n1nc(-c2ccccc2)c(F)c1NCc1ccc(Cl)s1` [Compound 51, N-[(5-chlorothiophen-2-yl)methyl]-4-fluoro-1-(furan-3-carbonyl)-3-phenyl-1H-pyrazol-5-amine], with less than 100 nM.
As to `COCC(C)(C)C(=O)n1nc(-c2ccccc2)c(F)c1NCc1ccc(Cl)s1` [Compound 15, 1-(5-[(5-chlorothiophen-2-yl)methyl]amino-4-fluoro-3-phenyl-1H-pyrazol-1-yl)-3-methoxy-2,2-dimethylpropan-1-one], the IC50 is less than 100 nM.
Next, `CC(C)(C)C(=O)n1nc(-c2ccc3c(c2)CCCC3=O)c(F)c1NCc1ccc(Cl)s1` [Compound 29, 6-(5-[(5-chlorothiophen-2-yl)methyl]amino-1-(2,2-dimethylpropanoyl)-4-fluoro-1H-pyrazol-3-yl)-1,2,3,4-tetrahydronaphthalen-1-one]: less than 100 nM; `CC(C)(C)C(=O)n1nc(-c2ccc(N3CCCC3=O)cc2)c(F)c1NCc1ccc(Cl)s1` [Compound 16, 1-[4-(5-[(5-chlorothiophen-2-yl)methyl]amino-1-(2,2-dimethylpropanoyl)-4-fluoro-1H-pyrazol-3-yl)phenyl]pyrrolidin-2-one]: less than 100 nM.
Then `COCCOc1ccc(C(=O)n2nc(C3CCOCC3)c(F)c2NCc2ccc(Cl)s2)cc1` [Compound 52, N-[(5-chlorothiophen-2-yl)methyl]-4-fluoro-1-[4-(2-methoxyethoxy)benzoyl]-3-(oxan-4-yl)-1H-pyrazol-5-amine], with less than 100 nM.
Then `O=C(c1cccc2c1OCCO2)n1nc(C2CCOCC2)c(F)c1NCc1ccc(Cl)s1` [Compound 32, N-[(5-chlorothiophen-2-yl)methyl]-1-(2,3-dihydro-1,4-benzodioxine-5-carbonyl)-4-fluoro-3-(oxan-4-yl)-1H-pyrazol-5-amine], with less than 100 nM; and `COc1ccccc1C(=O)n1nc(-c2ccc3c(c2)CCCC3O)c(F)c1NCc1ccc(Cl)s1` (stereo not drawn) [Compound 30, 6-(5-[(5-chlorothiophen-2-yl)methyl]amino-4-fluoro-1-(2-methoxybenzoyl)-1H-pyrazol-3-yl)-1,2,3,4-tetrahydronaphthalen-1-ol], with more than 1000 nM; and `COc1ccccc1C(=O)n1nc(-c2ccccc2)c(F)c1NCc1ccccc1` [Compound 60, N-benzyl-4-fluoro-1-(2-methoxybenzoyl)-3-phenyl-1H-pyrazol-5-amine], with less than 100 nM.
As for `CC(C)(C)C(=O)n1nc(-c2ccccc2)c(F)c1NCc1ccc(Cl)s1` [Compound 10, 1-(5-[(5-chlorothiophen-2-yl)methyl]amino-4-fluoro-3-phenyl-1H-pyrazol-1-yl)-2,2-dimethylpropan-1-one], the IC50 is less than 100 nM.
Then `CC(C)(O)C(=O)n1nc(-c2ccccc2)c(F)c1NCc1ccc(Cl)s1` [Compound 11, 1-(5-[(5-chlorothiophen-2-yl)methyl]amino-4-fluoro-3-phenyl-1H-pyrazol-1-yl)-2-hydroxy-2-methylpropan-1-one], with less than 100 nM; and `O=C(c1ccsc1)n1nc(C2CCOCC2)c(F)c1NCc1ccc(Cl)s1` [Compound 54, N-[(5-chlorothiophen-2-yl)methyl]-4-fluoro-3-(oxan-4-yl)-1-(thiophene-3-carbonyl)-1H-pyrazol-5-amine], with less than 100 nM.
Then `O=C(c1ccc(N2CCOCC2)cc1)n1nc(C2CCOCC2)c(F)c1NCc1ccc(Cl)s1` [Compound 53, N-[(5-chlorothiophen-2-yl)methyl]-4-fluoro-1-[4-(morpholin-4-yl)benzoyl]-3-(oxan-4-yl)-1H-pyrazol-5-amine], with less than 100 nM.
Then `CN(C)c1cccc2c(S(=O)(=O)Nc3ccc(C(=O)n4nc(-c5ccccc5)c(F)c4NCc4ccc(Cl)s4)cc3)cccc12` [Compound 58, N-[4-(5-[(5-chlorothiophen-2-yl)methyl]amino-4-fluoro-3-phenyl-1H-pyrazole-1-carbonyl)phenyl]-5-(dimethylamino)naphthalene-1-sulfonamide], with less than 100 nM; and `O=C1CCCN1c1ccc(-c2nn(C(=O)c3ccoc3)c(NCc3ccc(Cl)s3)c2F)cc1` [Compound 20, 1-[4-(5-[(5-chlorothiophen-2-yl)methyl]amino-4-fluoro-1-(furan-3-carbonyl)-1H-pyrazol-3-yl)phenyl]pyrrolidin-2-one], with more than 1000 nM; and `COc1ccccc1C(=O)n1nc(-c2ccccn2)c(F)c1NCc1ccccc1` [Compound 59, N-benzyl-4-fluoro-1-(2-methoxybenzoyl)-3-(pyridin-2-yl)-1H-pyrazol-5-amine], with less than 100 nM.
